Patent US8802700B2 (Vertex Pharmaceuticals Incorporated, priority 2010, dated 2014)
pEC50: −log10 of the molar value.

Target: T1, ΔF508-CFTR (Homo sapiens, UniProt P13569, DEL508-508)
T1 construct: expressed in transfected cells
Assay: Membrane potential optical assay (FRET voltage-sensor dyes, VIPR), identification of potentiator compounds
Type: cell-based
Details: Table 3; assay not given
Summary of the method: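 Potentiator screen measured membrane potential via FRET between CC2-DMPE donor and DiSBAC2(3), read on VIPR II. Compound went in with the first addition of chloride-free gluconate bath; cells were ΔF508-CFTR-expressing NIH3T3 mouse fibroblasts, temperature-corrected at 27 °C for 24 h.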

T1 sequence (P13569 with tags, fused parts or gaps DEL508-508): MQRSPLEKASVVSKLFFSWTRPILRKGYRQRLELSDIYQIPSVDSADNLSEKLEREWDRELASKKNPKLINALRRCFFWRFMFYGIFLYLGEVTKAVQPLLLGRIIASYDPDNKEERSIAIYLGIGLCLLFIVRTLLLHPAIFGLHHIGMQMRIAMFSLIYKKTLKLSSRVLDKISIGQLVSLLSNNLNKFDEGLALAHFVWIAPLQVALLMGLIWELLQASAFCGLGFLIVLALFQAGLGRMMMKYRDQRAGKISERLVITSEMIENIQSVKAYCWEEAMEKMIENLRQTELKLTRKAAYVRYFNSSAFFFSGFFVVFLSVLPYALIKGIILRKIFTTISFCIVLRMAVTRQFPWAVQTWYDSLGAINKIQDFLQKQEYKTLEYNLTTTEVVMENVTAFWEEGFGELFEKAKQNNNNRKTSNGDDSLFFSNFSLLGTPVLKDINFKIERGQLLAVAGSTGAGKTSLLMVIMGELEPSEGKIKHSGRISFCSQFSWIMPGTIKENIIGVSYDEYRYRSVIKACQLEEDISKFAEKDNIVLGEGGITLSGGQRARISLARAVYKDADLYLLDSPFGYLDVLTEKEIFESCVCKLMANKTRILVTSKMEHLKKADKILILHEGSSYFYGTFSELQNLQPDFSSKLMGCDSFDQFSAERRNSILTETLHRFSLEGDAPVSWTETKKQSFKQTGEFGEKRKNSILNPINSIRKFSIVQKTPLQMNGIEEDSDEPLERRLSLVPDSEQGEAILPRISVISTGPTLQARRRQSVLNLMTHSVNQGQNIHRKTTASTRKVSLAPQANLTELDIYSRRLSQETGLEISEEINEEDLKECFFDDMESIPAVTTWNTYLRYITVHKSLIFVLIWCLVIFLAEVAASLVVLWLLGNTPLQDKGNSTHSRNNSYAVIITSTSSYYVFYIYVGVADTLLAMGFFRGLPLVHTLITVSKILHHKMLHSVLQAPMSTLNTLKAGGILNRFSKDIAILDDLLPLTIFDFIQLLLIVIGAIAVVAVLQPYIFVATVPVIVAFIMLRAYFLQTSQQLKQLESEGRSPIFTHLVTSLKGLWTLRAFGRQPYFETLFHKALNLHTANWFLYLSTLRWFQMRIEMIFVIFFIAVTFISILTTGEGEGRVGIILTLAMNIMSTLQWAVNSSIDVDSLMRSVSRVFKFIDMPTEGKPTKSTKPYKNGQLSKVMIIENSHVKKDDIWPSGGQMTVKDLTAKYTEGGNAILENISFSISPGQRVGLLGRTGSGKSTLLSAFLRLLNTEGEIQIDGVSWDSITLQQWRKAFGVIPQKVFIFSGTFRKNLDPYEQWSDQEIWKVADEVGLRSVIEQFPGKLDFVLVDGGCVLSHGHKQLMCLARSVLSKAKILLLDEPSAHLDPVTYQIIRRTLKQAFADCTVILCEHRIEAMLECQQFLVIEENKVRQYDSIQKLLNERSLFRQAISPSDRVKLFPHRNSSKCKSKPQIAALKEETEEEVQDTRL

pEC50	SMILES
> 5.00	CCc1ccc(N)cc1NC(=O)c1c[nH]c2ccccc2c1=O [Compound 282, N-(5-amino-2-ethyl-phenyl)-4-oxo-1H-quinoline-3-carboxamide]

Same assay, conditions: Table 3; assay not given; read-out: % Activity (% Efficacy, relative efficacy)

Emax	SMILES
25 to 100%	CCc1ccc(N)cc1NC(=O)c1c[nH]c2ccccc2c1=O [Compound 282, N-(5-amino-2-ethyl-phenyl)-4-oxo-1H-quinoline-3-carboxamide]
25 to 100%	Cc1ccc2[nH]cc(C(=O)Nc3ccc(N4CCC(C)(C)C4)cc3C(F)(F)F)c(=O)c2c1 [Compound 489, N-[4-(3,3-dimethylpyrrolidin-1-yl)-2-(trifluoromethyl)phenyl]-6-methyl-4-oxo-1H-quinoline-3-carboxamide]
25 to 100%	Cc1cc(NC(=O)c2c[nH]c3ccccc3c2=O)ccc1F [Compound 257, N-(4-fluoro-3-methyl-phenyl)-4-oxo-1H-quinoline-3-carboxamide]
25 to 100%	COc1ccc(C)cc1NC(=O)c1c[nH]c2ccccc2c1=O [Compound 120, N-(2-methoxy-5-methyl-phenyl)-4-oxo-1H-quinoline-3-carboxamide]
25 to 100%	COC(=O)[C@@H]1[C@H]2C[C@H]2CN1c1ccc(NC(=O)c2c[nH]c3ccccc3c2=O)c(C(F)(F)F)c1 [Compound 531, (1S,2S,5R)-methyl 3-(4-(4-oxo-1,4-dihydroquinoline-3-carboxamido)-3-(trifluoromethyl)phenyl)-3-azabicyclo[3.1.0]hexane-2-carboxylate]
25 to 100%	CNc1ccc(C(C)C)c(NC(=O)c2c[nH]c3ccccc3c2=O)c1 [Compound 399, N-(2-isopropyl-5-methylamino-phenyl)-4-oxo-1H-quinoline-3-carboxamide]
< 25%	NS(=O)(=O)c1ccc(NC(=O)c2c[nH]c3ccccc3c2=O)cc1 [Compound 165, 4-oxo-N-(4-sulfamoylphenyl)-1H-quinoline-3-carboxamide]
25 to 100%	CCOc1ccccc1-c1ccc(CNC(=O)OC(C)(C)C)cc1NC(=O)c1c[nH]c2ccccc2c1=O [Compound 304, {2′-Ethoxy-2-[(4-oxo-1,4-dihydroquinoline-3-carbonyl)-amino]-biphenyl-4-ylmethyl}-carbamic acid tert-butyl ester]
25 to 100%	Cc1ccc2c(=O)c(C(=O)Nc3cc4[nH]ccc4cc3C(F)(F)F)c[nH]c2c1 [Compound 576, 7-methyl-4-oxo-N-[5-(trifluoromethyl)-1H-indol-6-yl]-1H-quinoline-3-carboxamide]
25 to 100%	CC(C)(C)OC(=O)Nc1ccc(NC(=O)c2c[nH]c3ccccc3c2=O)c(C(F)(F)F)c1 [Compound 600, tert-butyl [[4-[(4-oxo-1H-quinolin-3-yl)carbonylamino]-3-(trifluoromethyl)phenyl]amino]formate]

Further lines, the compound ahead of its results:

SMILES	Emax
O=C(Nc1ccccc1-c1cc2ccccc2s1)c1c[nH]c2ccccc2c1=O [Compound 172, N-(2-(benzo[b]thiophen-2-yl)phenyl)-1,4-dihydro-4-oxoquinoline-3-carboxamide]	25 to 100%
O=C(Nc1ccc(N2CCOCC2)cc1)c1c[nH]c2ccccc2c1=O [Compound 457, N-(4-morpholinophenyl)-4-oxo-1H-quinoline-3-carboxamide]	< 25%
O=C(Nc1cc(Cl)cc(NS(=O)(=O)CCN2CCCCC2)c1)c1c[nH]c2ccccc2c1=O [Compound 133, N-[3-chloro-5-[2-(1-piperidyl)ethylsulfonylamino]phenyl]-4-oxo-1H-quinoline-3-carboxamide]	25 to 100%
N#Cc1ccc(-c2ccccc2NC(=O)c2c[nH]c3ccccc3c2=O)s1 [Compound 93, N-[2-(5-cyano-2-thienyl)phenyl]-4-oxo-1H-quinoline-3-carboxamide]	25 to 100%
O=C(Nc1cccc(Oc2ccccc2)c1)c1c[nH]c2ccccc2c1=O [Compound 87, 4-oxo-N-(3-phenoxyphenyl)-1H-quinoline-3-carboxamide]	25 to 100%
CC(C)(C)c1cc(C(C)(C)C)c(NC(=O)c2c[nH]c3cccc(N)c3c2=O)cc1O [Compound 585, 5-amino-N-(5-hydroxy-2,4-ditert-butyl-phenyl)-4-oxo-1H-quinoline-3-carboxamide]	> 100%
O=C(Nc1ccccc1-c1ccc2c(c1)OCO2)c1c[nH]c2ccccc2c1=O [Compound 135, N-(2-benzo[1,3]dioxol-5-ylphenyl)-4-oxo-1H-quinoline-3-carboxamide]	> 100%
